The values below are quoted from earlier work in patent US7601757B2, “Lipid system and methods of use” (Abbott Laboratories, priority 2003, dated 2009).

Molecules are shown by their SMILES.

Series [1] concerns genetically insulin-resistant diabetic mice (KK-Ay). Particulars: 21 days after daily administration by gavage.
Series [2] has as its system obese individuals with markers of insulin resistance. Particulars: diets rich in alpha-linolenic acid as margarine and muffins made with flaxseed oil.

On to `CC/C=C\C/C=C\C/C=C\CCCCCCCC(=O)O` [alpha-linolenic acid], for which the “Blood glucose response to insulin” value in series [1] is reported as “significant improvement”. In series [2], the Insulin sensitivity result was “decreased”.
